Laboratory results reported in US9573913B2, “Cathepsin cysteine protease inhibitors” (Merck Sharp & Dohme Corp., priority 2013, dated 2017).

Assays:
[1] = molecular target: T1, human cathepsin F (Homo sapiens, UniProt Q9UBX1); assay: Cathepsin F assay (hCat F); assay type: biochemical; details: Z-Phe-Arg-AMC substrate, pH 5.5, 15 min preincubation; read-out: hCat F (IP (nM))
T1 sequence (Q9UBX1 271-484): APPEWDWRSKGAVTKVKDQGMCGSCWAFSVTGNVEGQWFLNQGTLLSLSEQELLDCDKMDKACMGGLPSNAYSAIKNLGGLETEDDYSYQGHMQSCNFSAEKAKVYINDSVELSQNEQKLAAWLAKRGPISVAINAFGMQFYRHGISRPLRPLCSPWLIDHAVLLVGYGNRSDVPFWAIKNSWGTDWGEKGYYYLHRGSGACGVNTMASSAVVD
Summary of the method: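 AMC release from Z-Phe-Arg-AMC, added at 8 μM, was monitored fluorometrically (360/460 nm) for 20 min after 10 nM enzyme and compound had been preincubated 15 min at room temperature. Buffer: MES 50 mM pH 5.5, EDTA and DTT 2.5 mM each, 10% DMSO. Compound DMSO dilutions spanned 500–0.025 μM (3-fold). Dose-response fitting gave % inhibition.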

[2] = molecular target: human cathepsin K (UniProt P43236); assay: Cathepsin K Assay (hrbCat K); assay type: biochemical; details: Z-Leu-Arg-AMC substrate, pH 5.5, 15 min preincubation; read-out: hrbCat K (IP (nM))
Summary of the method: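 Human cathepsin K (0.4 nM) was preincubated 15 min at room temperature with compound in 50 mM MES pH 5.5, 2.5 mM EDTA, 2.5 mM DTT and 10% DMSO. Inhibition was fitted to a dose-response model.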

Compound	IC50 [1] [nM]	IC50 [2] [nM]
Cc1ncc(-c2nc([C@@H]3CC[C@H](F)C[C@H]3C(=O)NC3(C#N)CC3)c(-c3ccc(N4CCS(=O)(=O)CC4)cc3)s2)s1 [Example 128, (1R,2R,5S)-N-(1-cyanocyclopropyl)-2-(5-(4-(1,1-dioxidothiomorpho-lino)phenyl)-2′-methyl-[2,5′-bithiazol]-4-yl)-5-fluorocyclohexane-carboxamide]	≥ 10000	1.8
C[C@H](C#N)NC(=O)[C@@H]1C[C@@H](F)CC[C@H]1c1nc(-c2ccc(F)cn2)sc1-c1ccc(N2CCS(=O)(=O)CC2)cc1 [Example 129, (1R,2R,5S)-N-((R)-1-cyanoethyl)-2-(5-(4-(1,1-dioxidothiomorpho-lino)phenyl)-2-(5-fluoropyridin-2-yl)thiazol-4-yl)-5-fluorocyclohexane-carboxamide]	≥ 10000	25.5
C[C@@H](C#N)NC(=O)[C@@H]1C[C@@H](F)CC[C@H]1c1nc(-c2ccc(F)cn2)sc1-c1ccc(N2CCS(=O)(=O)CC2)cc1 [Example 130, (1R,2R,5S)-N-((S)-1-cyanoethyl)-2-(5-(4-(1,1-dioxidothiomorpho-lino)phenyl)-2-(5-fluoropyridin-2-yl)thiazol-4-yl)-5-fluorocyclohexane-carboxamide]	1000	0.9
CS(=O)(=O)c1ccc(-c2sc(-c3cccnc3)nc2[C@@H]2CCCC[C@H]2C(=O)NC2(C#N)CC2)cc1 [Example 131, (1R,2R)-N-(1-cyanocyclopropyl)-2-(5-(4-(methylsulfonyl)phenyl)-2-(pyridin-3-yl)thiazol-4-yl)cyclohexane-carboxamide]	1790	39.7
N#CC1(NC(=O)[C@@H]2CCCC[C@H]2c2nc(-c3cccc(C(F)(F)F)n3)sc2-c2ccc(N3CCS(=O)(=O)CC3)cc2)CC1 [Example 132, (1R,2R)-N-(1-cyanocyclopropyl)-2-(5-(4-(1,1-dioxidothiomorpho-lino)phenyl)-2-(6-(trifluoromethyl)pyridin-2-yl)thiazol-4-yl)cyclohexane-carboxamide]	2340	1.8
CC1(c2nc([C@@H]3CCCC[C@H]3C(=O)NC3(C#N)CC3)c(-c3ccc(N4CCS(=O)(=O)CC4)cc3)s2)CCOCC1 [Example 133, (1R,2R)-N-(1-cyanocyclopropyl)-2-(5-(4-(1,1-dioxidothiomorpho-lino)phenyl)-2-(4-methyltetrahydro-2H-pyran-4-yl)thiazol-4-yl)cyclohexane-carboxamide]	≥ 10000	4.9
N#CC1(NC(=O)[C@@H]2CCCC[C@H]2c2nc(-c3cncc(F)c3)sc2-c2ccc(N3CCS(=N)(=O)CC3)cc2)CC1 [Example 135, (1R,2R)-N-(1-cyanocyclopropyl)-2-(2-(5-fluoropyridin-3-yl)-5-(4-(1-imino-1-oxidothiomorpholino)phenyl)thiazol-4-yl)cyclohexane-carboxamide]	1560	1.2
N#CC1(NC(=O)[C@@H]2CCCC[C@H]2c2nc(-c3ccc(F)cn3)sc2-c2ccc(N3CCS(=N)(=O)CC3)cc2)CC1 [Example 136, (1R,2R)-N-(1-cyanocyclopropyl)-2-(2-(5-fluoropyridin-2-yl)-5-(4-(1-imino-1-oxidothiomorpholino)phenyl)thiazol-4-yl)cyclohexane-carboxamide]	1660	1.9
CN=S1(=O)CCN(c2ccc(-c3sc(-c4cncc(F)c4)nc3[C@@H]3CCCC[C@H]3C(=O)NC3(C#N)CC3)cc2)CC1 [Example 138, (1R,2R)-N-(1-cyanocyclopropyl)-2-(2-(5-fluoropyridin-3-yl)-5-(4-(1-(methylimino)-1-oxidothiomorpholino)phenyl)thiazol-4-yl)cyclohexane-carboxamide]	2130	1.9

Next, values leading:

IC50 [1] [nM]	IC50 [2] [nM]	Compound
2750	3.3	CN=S1(=O)CCN(c2ccc(-c3sc(-c4ccc(F)cn4)nc3[C@@H]3CCCC[C@H]3C(=O)NC3(C#N)CC3)cc2)CC1 [Example 139, (1R,2R)-N-(1-cyanocyclopropyl)-2-(2-(5-fluoropyridin-2-yl)-5-(4-(1-(methylimino)-1-oxidothiomorpholino)phenyl)thiazol-4-yl)cyclohexane-carboxamide]
1000	2.3	N#CC1(NC(=O)[C@@H]2C[C@@H](F)CC[C@H]2c2nc(-c3ccc(F)cn3)sc2-c2ccc(N3CCS(=N)(=O)CC3)cc2)CC1 [Example 141, (1R,2R,5S)-N-(1-cyanocyclopropyl)-5-fluoro-2-(2-(5-fluoropyridin-2-yl)-5-(4-(1-imino-1-oxidothiomorpholino)phenyl)thiazol-4-yl)cyclohexane-carboxamide]
3400	5.8	CC1(C)CN(c2nc([C@@H]3CCCC[C@H]3C(=O)NC3(C#N)CC3)c(-c3ccc(N4CCS(=O)(=O)CC4)cc3)s2)CCO1 [Example 142, (1R,2R)-N-(1-cyanocyclopropyl)-2-(2-(2,2-dimethylmorpholino)-5-(4-(1,1-dioxidothiomorpho-lino)phenyl)thiazol-4-yl)cyclohexane-carboxamide]
134	2	CNC(=O)N1CC(c2ccc(-c3sc(-c4ccc(F)cc4)nc3[C@@H]3CCCC[C@H]3C(=O)NC3(C#N)CC3)cc2)C1 [Example 143, 3-(4-(4-((1R,2R)-2-((1-cyanocyclopropyl)carbamoyl)cyclohex-yl)-2-(4-fluorophenyl)thiazol-5-yl)phenyl)-N-methylazetidine-1-carboxamide]
5280	3.3	N#CC1(NC(=O)[C@@H]2CCCC[C@H]2c2nc(N3CCO[C@@H](C(F)(F)F)C3)sc2-c2ccc(N3CCS(=O)(=O)CC3)cc2)CC1 [Example 144, (1R,2R)-N-(1-cyanocyclopropyl)-2-(5-(4-(1,1-dioxidothiomorpho-lino)phenyl)-2-((R)-2-(trifluoromethyl)morpholino)thiazol-4-yl)cyclohexane-carboxamide]
7050	4.3	N#CC1(NC(=O)[C@@H]2CCCC[C@H]2c2nc(N3CCO[C@H](C(F)(F)F)C3)sc2-c2ccc(N3CCS(=O)(=O)CC3)cc2)CC1 [Example 145, (1R,2R)-N-(1-cyanocyclopropyl)-2-(5-(4-(1,1-dioxidothiomorpho-lino)phenyl)-2-((S)-2-(trifluoromethyl)morpholino)thiazol-4-yl)cyclohexane-carboxamide]
1000	4.6	N#CC1(NC(=O)[C@@H]2CCCC[C@H]2c2nc(C3CCCOC3)sc2-c2ccc(N3CCS(=O)(=O)CC3)cc2)CC1 (stereo partly drawn) [Example 146, (1R,2R)-N-(1-cyanocyclopropyl)-2-(5-(4-(1,1-dioxidothiomorpho-lino)phenyl)-2-(tetrahydro-2H-pyran-3-yl)thiazol-4-yl)cyclohexane-carboxamide]
7560	3.6	N#CC1(NC(=O)[C@@H]2CCCC[C@H]2c2nc([C@@H]3CCCCO3)sc2-c2ccc(N3CCS(=O)(=O)CC3)cc2)CC1 [Example 149, (1R,2R)-N-(1-cyanocyclopropyl)-2-(5-(4-(1,1-dioxidothiomorpho-lino)phenyl)-2-((S)-tetrahydro-2H-pyran-2-yl)thiazol-4-yl)cyclohexane-carboxamide]
110	1.6	N#CC1(NC(=O)[C@@H]2CCCC[C@H]2c2nc(-c3ccc(F)cc3)sc2-c2ccc(C3CN(C(=O)NCC(F)(F)F)C3)cc2)CC1 [Example 150, 3-(4-(4-((1R,2R)-2-((1-cyanocyclopropyl)carbamoyl)cyclohex-yl)-2-(4-fluorophenyl)thiazol-5-yl)phenyl)-N-(2,2,2-trifluoroethyl) azetidine-1-carboxamide]
177	1.3	CC(=O)N1CC(c2ccc(-c3sc(-c4ccc(F)cc4)nc3[C@@H]3CCCC[C@H]3C(=O)NC3(C#N)CC3)cc2)C1 [Example 151, (1R,2R)-2-(5-(4-(1-acetylazetidin-3-yl)phenyl)-2-(4-fluorophenyl)thiazol-4-yl)-N-(1-cyanocyclopropyl) cyclohexanecarbox-amide]
≥ 10000	7	CN(CC(F)(F)F)c1nc([C@@H]2CCCC[C@H]2C(=O)NC2(C#N)CC2)c(-c2ccc(N3CCS(=O)(=O)CC3)cc2)s1 [Example 152, (1R,2R)-N-(1-cyanocyclopropyl)-2-(5-(4-(1,1-dioxidothiomorpho-lino)phenyl)-2-(methyl(2,2,2-trifluoroethyl)amino)thiazol-4-yl)cyclohexane-carboxamide]
1000	3.1	N#CC1(NC(=O)[C@@H]2CCCC[C@H]2c2nc(N3CCC(F)(F)C3)sc2-c2ccc(N3CCS(=O)(=O)CC3)cc2)CC1 [Example 153, (1R,2R)-N-(1-cyanocyclopropyl)-2-(2-(3,3-difluoropyrrolidin-1-yl)-5-(4-(1,1-dioxidothiomorpho-lino)phenyl)thiazol-4-yl)cyclohexane-carboxamide]
1000	4	N#CC1(NC(=O)[C@@H]2CCCC[C@H]2c2nc([C@@H]3CCOC3)sc2-c2ccc(N3CCS(=O)(=O)CC3)cc2)CC1 [Example 155, (1R,2R)-N-(1-cyanocyclopropyl)-2-(5-(4-(1,1-dioxidothiomorpho-lino)phenyl)-2-((R)-tetrahydrofuran-3-yl)thiazol-4-yl)cyclohexane-carboxamide]
